Test results taken from PubChem BioAssay AID330 (DTP/NCI, 2004).
“And” between values parts separate entries of the source, which are not always exact repeats. Equal entries are not always repeated. Inconclusive results and toxic doses are left out. The calls were made as follows: active = survival T/C of 150% or more; inactive = T/C below 125% in these data.

Tested on: P388 leukemia ip, CD2F1 mice, survival T/C
Assay: NCI In Vivo Anticancer Drug Screen. Data for tumor model P388 Leukemia (intraperitoneal) in CD2F1 (CDF1) mice
Conditions: endpoint: median survival time, higher = longer survival
Procedure, shortened: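 Mice carrying the transplanted tumor received test compound or vehicle. Survival was recorded in each group, and the value is the treated-group measurement divided by that of the vehicle-treated control group.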

[1] = dose: 50.0 mg/kg/injection, schedule: Q01DX009 (ip), vehicle: Klucel (hydroxypropylcellulose) (HPC)
[2] = dose: 100.0 mg/kg/injection, schedule: Q01DX009 (ip), vehicle: Klucel (hydroxypropylcellulose) (HPC)
[3] = dose: 200.0 mg/kg/injection, schedule: Q01DX009 (ip), vehicle: Klucel (hydroxypropylcellulose) (HPC)
[4] = dose: 25.0 mg/kg/injection, schedule: Q01DX009 (ip), vehicle: saline
[5] = dose: 50.0 mg/kg/injection, schedule: Q01DX009 (ip), vehicle: saline
[6] = dose: 60.0 mg/kg/injection, schedule: Q01DX005 (ip), vehicle: saline with Tween-80
[7] = dose: 120.0 mg/kg/injection, schedule: Q01DX005 (ip), vehicle: saline with Tween-80
[8] = dose: 240.0 mg/kg/injection, schedule: Q01DX005 (ip), vehicle: saline with Tween-80
[9] = dose: 50.0 mg/kg/injection, schedule: Q01DX005 (ip), vehicle: saline with Tween-80
[10] = dose: 100.0 mg/kg/injection, schedule: Q01DX005 (ip), vehicle: saline with Tween-80
[11] = dose: 200.0 mg/kg/injection, schedule: Q01DX005 (ip), vehicle: saline with Tween-80
[12] = dose: 50.0 mg/kg/injection, schedule: Q01DX009 (ip), vehicle: saline with Tween-80
[13] = dose: 100.0 mg/kg/injection, schedule: Q01DX009 (ip), vehicle: saline with Tween-80
[14] = dose: 200.0 mg/kg/injection, schedule: Q01DX009 (ip), vehicle: saline with Tween-80
[15] = dose: 60.0 mg/kg/injection, schedule: Q01DX005 (ip), vehicle: Klucel (hydroxypropylcellulose) (HPC)
[16] = dose: 120.0 mg/kg/injection, schedule: Q01DX005 (ip), vehicle: Klucel (hydroxypropylcellulose) (HPC)
[17] = dose: 100.0 mg/kg/injection, schedule: Q01DX009 (ip), vehicle: saline
[18] = dose: 200.0 mg/kg/injection, schedule: Q01DX009 (ip), vehicle: saline

Measured: T/C

COc1ccc2cc3n(c(=O)c2c1O)CCc1cc2c(cc1-3)OCO2
inactive: dose: 0.63 mg/kg/injection, schedule: Q01DX009 (ip), vehicle: distilled water + Tween-80 101 % of control | dose: 1.25 mg/kg/injection, schedule: Q01DX009 (ip), vehicle: distilled water + Tween-80 101 % of control | dose: 2.5 mg/kg/injection, schedule: Q01DX009 (ip), vehicle: distilled water + Tween-80 93 % of control | dose: 5.0 mg/kg/injection, schedule: Q01DX009 (ip), vehicle: distilled water + Tween-80 108 % of control | dose: 10.0 mg/kg/injection, schedule: Q01DX009 (ip), vehicle: distilled water + Tween-80 101 % of control | dose: 20.0 mg/kg/injection, schedule: Q01DX009 (ip), vehicle: distilled water + Tween-80 92 % of control

COc1cc([N+](=O)[O-])ccc1Nc1c2ccccc2nc2ccccc12
inactive: [1] 99 % of control | [2] 98 % of control | [3] 90 % of control

OCCNCCN1CCN(CCCN2c3ccccc3Sc3ccc(C(F)(F)F)cc32)CC1
inactive: dose: 3.12 mg/kg/injection, schedule: Q04DX003 (ip), vehicle: saline 99 % of control | dose: 6.25 mg/kg/injection, schedule: Q04DX003 (ip), vehicle: saline 99 % of control and 101 % of control and 88 % of control | dose: 12.5 mg/kg/injection, schedule: Q04DX003 (ip), vehicle: saline 101 % of control and 102 % of control and 90 % of control | dose: 25.0 mg/kg/injection, schedule: Q04DX003 (ip), vehicle: saline 104 % of control and 106 % of control and 93 % of control

COc1ccccc1OCC1CCC(=O)O1 (stereo unspecified)
inactive: dose: 100.0 mg/kg/injection, schedule: Q04DX002 (ip), vehicle: Klucel (hydroxypropylcellulose) (HPC) 95 % of control | dose: 200.0 mg/kg/injection, schedule: Q04DX002 (ip), vehicle: Klucel (hydroxypropylcellulose) (HPC) 103 % of control | dose: 400.0 mg/kg/injection, schedule: Q04DX002 (ip), vehicle: Klucel (hydroxypropylcellulose) (HPC) 101 % of control

Cn1nccc1N
inactive: [4] 117 % of control | [5] 108 % of control

Cc1ccccc1N1CC2CC3C=CC2(C1)O3 (stereo unspecified)
inactive: [6] 104 % of control | [7] 97 % of control | [8] 97 % of control

CC(=O)ONC(=O)CSc1nn2cc(-c3ccccc3)nc2s1
inactive: [9] 103 % of control | [10] 97 % of control | [11] 95 % of control

CCCCCCCCCCCCCCCCCCOP(=O)([O-])OCC[N+](C)(C)C
inactive: dose: 12.5 mg/kg/injection, schedule: Q01DX009 (ip), vehicle: saline 98 % of control | [4] 107 % of control

CN(c1ccccc1)c1nnnn1-c1ccccc1
inactive: dose: 50.0 mg/kg/injection, schedule: Q04DX003 (ip), vehicle: saline with Tween-80 95 % of control | dose: 100.0 mg/kg/injection, schedule: Q04DX003 (ip), vehicle: saline with Tween-80 104 % of control | dose: 200.0 mg/kg/injection, schedule: Q04DX003 (ip), vehicle: saline with Tween-80 111 % of control

CC(C)SC1NC(=O)N(C)C1=O (stereo unspecified)
inactive: [12] 100 % of control | [13] 107 % of control | [14] 100 % of control

Cc1c([N+](=O)[O-])ccn1C
inactive: [12] 98 % of control | [13] 105 % of control | [14] 97 % of control

Oc1cc2c(cc1C(Nc1ncccn1)c1ccc3c(c1)OCO3)OCO2 (stereo unspecified)
inactive: [6] 102 % of control | [7] 100 % of control | [8] 95 % of control

NC(=S)N/N=C/Cn1ccc(=O)[nH]c1=O
inactive: dose: 50.0 mg/kg/injection, schedule: Q01DX005 (ip), vehicle: Klucel (hydroxypropylcellulose) (HPC) 100 % of control | dose: 100.0 mg/kg/injection, schedule: Q01DX005 (ip), vehicle: Klucel (hydroxypropylcellulose) (HPC) 98 % of control | dose: 200.0 mg/kg/injection, schedule: Q01DX005 (ip), vehicle: Klucel (hydroxypropylcellulose) (HPC) 99 % of control

CNC(=O)Nc1[nH]c(=O)ncc1I
inactive: dose: 30.0 mg/kg/injection, schedule: Q01DX005 (ip), vehicle: Klucel (hydroxypropylcellulose) (HPC) 100 % of control | [15] 96 % of control | [16] 117 % of control

CS(C)=O.CS(C)=O.CS(C)=O.CS(C)=O.[Cl][Ru][Cl]
inactive: [15] 105 % of control | dose: 100.0 mg/kg/injection, schedule: Q04DX003 (ip), vehicle: saline 97 % of control | [16] 101 % of control | dose: 200.0 mg/kg/injection, schedule: Q04DX003 (ip), vehicle: saline 99 % of control | dose: 240.0 mg/kg/injection, schedule: Q01DX005 (ip), vehicle: Klucel (hydroxypropylcellulose) (HPC) 107 % of control | dose: 400.0 mg/kg/injection, schedule: Q04DX003 (ip), vehicle: saline 92 % of control

CC(=O)OCC1OC([n+]2cccc(C(N)=O)c2)C(OC(C)=O)C(OC(C)=O)C1OC(C)=O (stereo unspecified)
inactive: [4] 100 % of control | [5] 101 % of control | [17] 100 % of control | [18] 103 % of control

Cc1cc(=O)[nH]c(/N=C(/N)N(C)C)n1
inactive: [5] 101 % of control | [17] 98 % of control | [18] 108 % of control

C[C@H](N)[C@@H](O)/C=C/c1ccccc1
inactive: dose: 10.0 mg/kg/injection, schedule: Q01DX005 (ip), vehicle: saline 98 % of control | dose: 20.0 mg/kg/injection, schedule: Q01DX005 (ip), vehicle: saline 100 % of control | dose: 40.0 mg/kg/injection, schedule: Q01DX005 (ip), vehicle: saline 100 % of control

CCOC(=O)Cc1ccc(-c2csc(Nc3ccccc3)n2)cc1
inactive: [1] 106 % of control | [2] 98 % of control | [3] 98 % of control

O=C(O)c1nn(-c2ccccc2-c2n[nH]c(=O)[nH]c2=O)c(=O)[nH]c1=O
inactive: [9] 101 % of control | [10] 90 % of control | [11] 95 % of control

O=C(Nc1ccc(Cl)c(Cl)c1)n1cnc2ccccc21
inactive: dose: 6.25 mg/kg/injection, schedule: Q01DX009 (ip), vehicle: saline 105 % of control and 109 % of control | [12] 98 % of control

Nc1ccc(Br)cc1[N+](=O)[O-]
inactive: [12] 101 % of control | [13] 107 % of control | [14] 100 % of control | dose: 400.0 mg/kg/injection, schedule: Q01DX009 (ip), vehicle: saline with Tween-80 117 % of control

CCN(CCCO)CCCO
inactive: [5] 102 % of control | [17] 93 % of control | [18] 95 % of control

COC(=O)C1CC1(Cl)OC (stereo unspecified)
inactive: [12] 102 % of control | [13] 102 % of control | [14] 105 % of control

Cc1cc(CN2CCN(CCO)CC2)c(O)c(CN2CCN(CCO)CC2)c1
inactive: dose: 60.0 mg/kg/injection, schedule: Q01DX005 (ip), vehicle: saline 105 % of control | dose: 120.0 mg/kg/injection, schedule: Q01DX005 (ip), vehicle: saline 102 % of control

CC1Oc2[nH]c(=O)n(-c3ccc(Cl)cc3)c(=S)c2C1C (stereo unspecified)
inactive: dose: 12.5 mg/kg/injection, schedule: Q01DX001 (ip), vehicle: Klucel (hydroxypropylcellulose) (HPC) 100 % of control | dose: 25.0 mg/kg/injection, schedule: Q01DX001 (ip), vehicle: Klucel (hydroxypropylcellulose) (HPC) 102 % of control | dose: 50.0 mg/kg/injection, schedule: Q01DX001 (ip), vehicle: Klucel (hydroxypropylcellulose) (HPC) 101 % of control

O=Cc1ccco1
inactive: [12] 99 % of control | [13] 101 % of control | [14] 118 % of control
